One cell line from the supplement of paper PMC10307832 can be followed below.

Holding throughout (test): relative viability (nuclei count vs DMSO), 5 days (fraction); higher = more cells survive
Compound in the assay “XMD13-2 + Lapatinib”: C1CC1C(=O)NC2=NNC3=C2C=CC(=C3)C4=CC(=CC=C4)C(=O)NC5CC5 [XMD13-2] + CS(=O)(=O)CCNCc1ccc(-c2ccc3ncnc(Nc4ccc(OCc5cccc(F)c5)c(Cl)c4)c3c2)o1 [Lapatinib] (partner 2 µM)
A digest of the protocol: (§1)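 Lung cancer cell lines were seeded in 1536-well plates and dosed by pin tool the next day, with either a single drug or a fixed anchor-drug dose combined with five library-drug doses (not always all listed) spaced in √10 steps. Five days later, one step fixed the cells and stained their nuclei (final 0.05% Triton X-100, 1% formaldehyde, 1 ug/ml Hoechst), and nuclei were counted on 4× images. Relative viability is the nuclei count in treated wells divided by the count in vehicle wells, and each value is the median of duplicate plates.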

Compound in the assay “XMD13-2 + Tozasertib”: C1CC1C(=O)NC2=NNC3=C2C=CC(=C3)C4=CC(=CC=C4)C(=O)NC5CC5 [XMD13-2] + Cc1cc(Nc2cc(N3CCN(C)CC3)nc(Sc3ccc(NC(=O)C4CC4)cc3)n2)n[nH]1 [Tozasertib] (partner 0.1 µM)
A digest of the protocol:
as §1

Compound in the assay “Dasatinib + Palbociclib”: Cc1nc(Nc2ncc(C(=O)Nc3c(C)cccc3Cl)s2)cc(N2CCN(CCO)CC2)n1 [Dasatinib] + CC(=O)c1c(C)c2cnc(Nc3ccc(N4CCNCC4)cn3)nc2n(C2CCCC2)c1=O [Palbociclib] (partner 0.5 µM)
A digest of the protocol: as §1

Compound in the assay “Dasatinib + Pictilisib”: Cc1nc(Nc2ncc(C(=O)Nc3c(C)cccc3Cl)s2)cc(N2CCN(CCO)CC2)n1 [Dasatinib] + CS(=O)(=O)N1CCN(Cc2cc3nc(-c4cccc5[nH]ncc45)nc(N4CCOCC4)c3s2)CC1 [Pictilisib] (partner 1 µM)
The method, boiled down:
as §1

Regarding UMC-11, the relative viability stood at 1.18 with XMD13-2 + Lapatinib (first compound 0.05 µM); 0.856 with XMD13-2 + Lapatinib (first compound 0.1581 µM); 1.01 with XMD13-2 + Lapatinib (first compound 0.5 µM); 0.901 in the assay with XMD13-2 + Lapatinib (first compound 1.581 µM); 1.08 with XMD13-2 + Lapatinib (first compound 5 µM); 0.188 in the assay with XMD13-2 + Tozasertib (first compound 0.05 µM). For the same cell line, the relative viability is 0.197 with XMD13-2 + Tozasertib (first compound 0.1581 µM); 0.197 with XMD13-2 + Tozasertib (first compound 0.5 µM); 0.204 with XMD13-2 + Tozasertib (first compound 1.581 µM); 0.192 with XMD13-2 + Tozasertib (first compound 5 µM); 0.335 in the assay with Dasatinib + Palbociclib (first compound 0.005 µM); 0.278 with Dasatinib + Palbociclib (first compound 0.01581 µM). Also, the relative viability is 0.27 with Dasatinib + Palbociclib (first compound 0.05 µM); 0.236 with Dasatinib + Palbociclib (first compound 0.1581 µM); 0.188 with Dasatinib + Palbociclib (first compound 0.5 µM); 0.735 in the assay with Dasatinib + Pictilisib (first compound 0.005 µM); 0.64 with Dasatinib + Pictilisib (first compound 0.01581 µM); 0.49 with Dasatinib + Pictilisib (first compound 0.05 µM). The relative viability with Dasatinib + Pictilisib (first compound 0.1581 µM) and with Dasatinib + Pictilisib (first compound 0.5 µM) was 0.288 each time.
